Reference: ChEMBL document CHEMBL4613224, “Synthesis, in-vitro antiprotozoal activity and molecular docking study of isothiocyanate derivatives” (Bioorg Med Chem, 2020)
pIC50: −log10 of the molar value. Calls of active or inactive are those of the source. The rule behind the calls is not given here.

Assays:
L6 = assay: Cytotoxicity against rat L6 cells assessed as reduction in cell viability measured after 72 hrs by Alamar blue based inverted microscopy analysis; conditions: L6, 72 h
[1] = (§1) Selectivity index, ratio of IC50 for rat L6 cells assessed as reduction in cell viability measured after 72 hrs by Alamar blue based inverted microscopy analysis to IC50 for bloodstream Trypanosoma brucei rhodesiense STIB900 assessed as parasite growth inhibition measured after 70 hrs by Alamar blue assay; type: toxicity; conditions: read-out: Ratio IC50
[2] = system: Trypanosoma brucei rhodesiense; assay: Antitrypanosomal activity against bloodstream Trypanosoma brucei rhodesiense STIB900 assessed as parasite growth inhibition at 2 ug/ml measured after 70 hrs by Alamar blue assay relative to control; type: functional; conditions: for inhibition at 2 µg/mL: STIB900, 70 h
[3] = system: Trypanosoma brucei rhodesiense; assay: Antitrypanosomal activity against bloodstream Trypanosoma brucei rhodesiense STIB900 assessed as parasite growth inhibition measured after 70 hrs by Alamar blue assay; type: functional, organism-based; conditions: STIB900, 70 h
Trypanosoma cruzi = assay: Antitrypanosomal activity against Trypanosoma cruzi Tulahuen C4 trypomastigotes infected in rat L6 cells assessed as parasite growth inhibition at 2 ug/ml measured after 96 hrs by inverted microscopy analysis relative to control; type: functional
Leishmania donovani [4] = assay: Antileishmanial activity against Leishmania donovani MHOM-ET-67/L82 axenic amastigotes assessed as parasite growth inhibition at 2 to 10 ug/ml measured after 72 hrs by Alamar blue based inverted microscopy analysis relative to control; type: functional
Plasmodium falciparum = assay: Antiplasmodial activity against Plasmodium falciparum NF54 measured after 24 hrs in presence of [3H] hypoxanthine by liquid scintillation counter analysis; type: functional, organism-based
[5] = as §1, with “Leishmania donovani MHOM-ET-67/L82 axenic amastigotes” for “bloodstream Trypanosoma brucei rhodesiense STIB900”, “72” for “70”, “based inverted microscopy analysis” for “assay”; type: toxicity; conditions: L6 cells, read-out: Ratio IC50
[6] = Selectivity index, ratio of IC50 for rat L6 cells assessed as reduction in cell viability measured after 72 hrs by Alamar blue based inverted microscopy analysis to IC50 for Plasmodium falciparum NF54 measured after 24 hrs in presence of [3H] hypoxanthine by liquid scintillation counter analysis; type: toxicity; conditions: read-out: Ratio IC50
Leishmania donovani [7] = assay: Antileishmanial activity against Leishmania donovani MHOM-ET-67/L82 axenic amastigotes assessed as parasite growth inhibition measured after 72 hrs by Alamar blue based inverted microscopy analysis; type: functional, organism-based; conditions: MHOM-ET-67/L82, 72 h

Row | SMILES | pIC50 (L6; read-out: IC50) | selectivity ratio at 72 h [1] | inhibition at 2 µg/mL [2] | pIC50 [3] | inhibition (Trypanosoma cruzi) | other results
1 | Nc1nc(N)nc(Nc2ccc([As]3SCC(CO)S3)cc2)n1 (stereo unspecified) [MELARSOPROL] | 4.62 | 3230 | – | – | – | –
2 | Fc1ccc(N=C=S)cc1 | 3.54 | 6.2 | > 50% | 4.33 | inactive | inhibition (Leishmania donovani [4]): inactive
3 | COc1ccc2c(c1OC)CO[C@@H]2[C@H]1c2c(cc3c(c2OC)OCO3)CCN1C(CN=C=S)c1ccc(C)cc1 (stereo partly specified) | 5.82 | 0.5 | > 50% | 5.51 | inactive | pIC50 (Plasmodium falciparum): 5.96; selectivity ratio at 72 h [5]: 1.7; selectivity ratio at 72 h [6]: 1.4; inhibition (INH) (Leishmania donovani [4]): >90%; pIC50 (Leishmania donovani [7]): 6.10
4 | COc1ccc2c(c1OC)CO[C@@H]2[C@H]1c2c(cc3c(c2OC)OCO3)CCN1C(CN)c1ccccc1 (stereo partly specified) | 4.92 | 8.8 | > 50% | 5.85 | – | pIC50 (Plasmodium falciparum): 5.70; selectivity ratio at 72 h [6]: 6
5 | COc1ccc2c(c1OC)CO[C@@H]2[C@H]1c2c(cc3c(c2OC)OCO3)CCN1C(CN)c1ccc2c(c1)Cc1ccccc1-2 (stereo partly specified) | 4.71 | 5.6 | > 50% | 5.46 | – | pIC50 (Plasmodium falciparum): 5.74; selectivity ratio at 72 h [6]: 11.2
6 | C[C@@H](CCC(N)=O)[C@H]1CC[C@H]2[C@@H]3CC[C@@H]4C[C@H](O)CC[C@]4(C)[C@H]3CC[C@]12C | – | – | – | – | – | inhibition [2]: inactive
7 | COc1cc([C@@H]2c3cc4c(cc3[C@H](O)[C@H]3COC(=O)[C@H]23)OCO4)cc(OC)c1OC [PODOFILOX] | – | – | – | – | – | pIC50 (L6): 7.92
8 | C[C@@H](CCCN=C=S)[C@H]1CC[C@H]2[C@@H]3[C@@H](O)C[C@@H]4C[C@H](O)CC[C@]4(C)[C@H]3CC[C@]12C | 5.37 | 2.7 | > 50% | 5.80 | inactive | inhibition (INH) (Leishmania donovani [4]): >90%
9 | CCc1ccccc1N=C=S | – | – | > 50% | – | inactive | inhibition (Leishmania donovani [4]): inactive
10 | COc1ccc2c(c1OC)CO[C@@H]2[C@H]1c2c(cc3c(c2OC)OCO3)CCN1C(CN)c1ccc(C)cc1 (stereo partly specified) | 4.63 | 24.4 | > 50% | 6.00 | – | pIC50 (Plasmodium falciparum): 5.74; selectivity ratio at 72 h [6]: 12.8
11 | COc1ccc(N=C=S)cc1OC | – | – | 50% | – | inactive | inhibition (Leishmania donovani [4]): inactive
12 | COc1ccc2c(c1OC)CO[C@@H]2[C@H]1c2c(cc3c(c2OC)OCO3)CCN1[C@@H](CN)c1cccnc1 | 4.84 | 3.7 | > 50% | 5.41 | – | –
13 | Cc1ccc(N=C=S)cc1 | 3.49 | 8.8 | > 50% | 4.43 | inactive | inhibition (Leishmania donovani [4]): inactive
14 | COC(=O)[C@H](Cc1ccccc1)N=C=S | 4.86 | – | > 50% | – | inactive | selectivity ratio at 72 h [5]: 14.4; inhibition (INH) (Leishmania donovani [4]): >90%; pIC50 (Leishmania donovani [7]): 6.00
15 | C[C@@H](CCC(N)=O)[C@H]1CC[C@H]2[C@@H]3[C@H](O)C[C@@H]4C[C@H](O)CC[C@]4(C)[C@H]3C[C@H](O)[C@]12C | – | – | – | – | – | inhibition [2]: inactive
16 | S=C=NCc1ccccc1 [BENZYL ISOTHIOCYANATE] | – | – | > 50% | – | inactive | inhibition (Leishmania donovani [4]): inactive
17 | C[C@@H](CCC(N)=O)[C@H]1CC[C@H]2[C@@H]3CC[C@@H]4C[C@H](O)CC[C@]4(C)[C@H]3C[C@H](O)[C@]12C | – | – | – | – | – | inhibition [2]: inactive
